Source: patent US20110236859A1, “ORAL CARE COMPOSITION CONTAINING OXIDASE ENZYME” (priority 2009, published 2011)

Assay: Glucose oxidase binding to saliva-coated hydroxyapatite disks (Amplex Red horseradish peroxidase coupled assay)
Method: Glucose oxidase binding to saliva coated hydroxyappetite disks is measured using a fluorescent (Amplex Red) horseradish peroxidase coupled assay directly from the disk surface.
Hydroxyapatite (HAP) disks coated with saliva are commonly used as models of a tooth surface.
Saliva was collected from 3-5 donors, clarified by centrifugation, and added to cover HAP disks (5 mm×2.0 mm Clarkson Chromatography) in a covered plastic tray. The disks were incubated with the saliva overnight, with gentle shaking, at room temperature. The disks were rinsed twice with 50 mM phosphate buffer prior to use in the binding assay. Varying concentrations of glucose oxidase (50-650 mU/ml) were added to the saliva-coated HAP disks in the presence of sorbitol (0.8-8%) or polyethyleneimine (1%). The amount of glucose oxidase retained on the hydroxyapatite disks, following three consecutive washes with phosphate buffered saline, was measured using a fluorescence (Amplex Red, Molecular Probes #A22189) horseradish peroxidase coupled assay, as per manufacturer's recommendation.

binding of glucose oxidase to saliva coated hydroxyapatite disks relative to no additive (FIG. 1, additive sorbitol 8, 0.8, 0.08%, fluorescent Amplex Red HRP coupled assay from disk surface): improve binding relative to no additive
Compound: OC[C@@H](O)[C@@H](O)[C@H](O)[C@@H](O)CO [sorbitol]
amount of active glucose oxidase detected on the hydroxyapatite (at least 0.8% sorbitol, glucose oxidase 50-650 mU/ml, after three washes with phosphate buffered saline): increased the amount of active glucose oxidase detected on the hydroxyapatite
